Tests used:
[1] = tested on: washed human platelets; assay: Thrombin-induced aggregation in washed human platelets; type: cell-based
Description: Washed human platelets were prepared from freshly isolated venous blood obtained from normal, healthy volunteers who had not taken any medication which might affect platelet function, according to the procedure of Connolly, T. M. et al., J. Biol. Chem., 267:6893 (1992). Inhibitors, were added in a volume of 20 μL to 350 μL of prewarmed washed platelets in a siliconized glass cuvette (Chronolog Corp., Havertown, PA) followed by 10 μL of 0.25 M CaCl2. The rate and extent of aggregation were measured for 5-15 minutes by the change in light transmission in a stirred cuvette, following the addition of 20 μL of […] (final concentration 2 nM), using a Chronolog Whole Blood Aggregometer equipped with the Aggro/Link data acquisition system (Chronolog Corp., Hayertown, PA). The extent of inhibition was determined by measuring the change in the amplitude (extent) of the aggregation response compared to the control (uninhibited) response over the 1 minute period following the addition of thrombin.

[2] = biological target: thrombin (Homo sapiens, UniProt P00734); conditions: literature values; read-out: Ki (thrombin), reported; cited from earlier work
[3] = tested on: Rat Venous Stasis Model; assay: Venous stasis in rats (thromboplastin plus stasis, inferior vena cava); type: in vivo; conditions: for % Clot: mean ± S.E.M.
Description: This is one of the most commonly used models in the evaluation of antithrombotic compounds. Hladovec, J. Thromb. […] Talbot, M. D., et. al., Thromb.
Male Harlan Sprague Dawley rats (420-450 g) were acclimated at least 72 hours prior to use. The animals were fasted for 12 hours prior to surgery with free access to water. The animals were anesthetized with a sodium pentobarbital (Nembutal) given intraperitoneally at a dose of 50 mg/kg body weight and placed on a isothermal pad to maintain body temperature. The level of anesthesia was monitored every 15 minutes by: neuro-response to a tail pinch, respiration and body core temperature. The desired depth of surgical anesthesia was maintained by administering subsequent doses (5 mg/kg) intravenously. The left femoral artery was catheterized with polyethylene tubing (PE50) using standard procedures for blood pressure monitoring and blood sampling. The left and right femoral veins were catheterized with PE50 tubing for delivery of anesthetic and test compounds respectively.
Blood pressure, heart rate, core temperature and respiration were monitored continuously.
The abdomen of the animals is opened by making a vertical midline incision followed by isolation of the IVC using dissection. The segment extends from below the renal to above the iliac vessels (about 2 cm in length). The peripheral blood vessels are tied off and a ligature is loosely placed at the distal and proximal ends of the isolated segment. Rabbit brain thromboplastin (RBT) (Sigma Chemical Co., St. Louis MO) is prepared by resuspending the contents of the vial with 2 mL of sterile saline pre-warmed to 37° C. At the end of the 30 minute infusion period, RBT is systemically administered as a bolus injection (1.5 mL/kg) via the femoral catheter. Stasis is induced within the isolated IVC segment by securing the proximal and distal ligature 10 sec following the administration of the RBT. Following a 30 minute period of stasis the tied off IVC segment is removed and the contents weighed. Clot formation was defined as %clot: [Weight of the isolated clot/(Weight of the intact segment-the weight of the empty segment)]×100. This method was used to correct for slight differences in segment size and fluid content.
Following termination of the experiment the animal was euthanized with a 120 mg/kg dose of Nembutal.

[4] = biological target: α-thrombin (Homo sapiens, UniProt P00734); assay: Thrombin-induced clotting of purified fibrinogen; type: biochemical; conditions: preincubation with α-thrombin up to 60 minutes before fibrinogen
Description: Inhibition is reflected as an increase in the relative clotting time which is the ratio of the […]. The control clotting time in this assay is 16.2±0.78 sec.
The clotting time of fibrinogen following the addition of the thrombin/inhibitor complex was measured optically using the Coag-A-Mate XC automated coagulometer (General Diagnostics, Organon Technica, Oklahoma City, OK). […] Haemostas., 69:130-134 (1993).

[5] = tested on: FeCl3 Model of Thrombosis in Rats; assay: Rat model of FeCl3-induced platelet-dependent arterial thrombosis; type: in vivo; conditions: for Incidence of Occlusion: occluded/total animals
From the text: Kurz, K. D., Main, B. W., and Sandusky, G. E., Thromb. Res., 60:269-280 (1990). In this model a platelet-rich, occlusive thrombus is formed in a segment of the rat carotid artery treated with a fresh solution of FeCl3 absorbed to a piece of filter paper. The FeCl3 is thought to diffuse into the treated segment of artery and causes de-endothelialization resulting in thrombus formation. The effect of a test compound on the incidence of occlusive thrombus formation following the application of the FeCl3 is monitored by ultrasonic flowtometry and is used as the primary end point. The use of flowtometry is a modification of the original procedure in which thermal detection of clot formation was employed. Kurz, K. D., Main, B. W., and Sandusky, G. E., Thromb. Res., 60:269-280 (1990).
Male Harlan Sprague Sawley rats (420-450 g) were acclimated at least 72 hours prior to use and fasted for 12 hours prior to surgery with free access to water. The animals were prepared, anesthetized with Nembutal with catheters for blood pressure monitoring, drug and anesthesia delivery being implanted as described above. The left carotid artery was exposed and isolated by making a midline cervical incision followed by blunt dissection and spreading techniques to separate a 2 cm segment of the vessel from the carotid sheath. A silk suture is inserted under the proximal and distal ends of the isolated vessel to provide clearance for the placement of a ultrasonic flow probe (Transonic) around the proximal end of the vessel. The probe is then secured with a stationary arm.
The test compounds were administered as described above after placement of the flow probe and stabilization of the preparation for a period of 60 minutes prior to the thrombogenic stimulus. At t=0, a 3 mm diameter piece of filter paper (Whatman #3) soaked with 10 μL of a 35% solution of fresh FeCl3 (in water) was applied the segment of isolated carotid artery distal to the flow probe. Blood pressure, blood flow, heart rate, and respiration were monitored for 60 minutes.
The incidence of occlusion (defined as the attainment of zero blood flow) was recorded as the primary end point. Following the 60 minute observation period the flow probe was removed and the area cleared of all excess fluid. The distal and proximal sutures were tied off and arterial clamps placed on the far proximal and distal ends of the segment. The isolated segment was cut out, blotted dry on filter paper and weighed. The segment was re-weighed following removal of the clot and the difference recorded as total % clot (see above). Weights were recorded on only those segments which had detectable thrombus. Following the procedure the animals were euthanized as described above.

[6] = 0.1 mg/kg i.v. bolus + 40 μg/kg/min i.v. infusion

## (D--Phe)--Pro--Arg--Pro--(Gly4 --Asn--Gly--Asp--Phe--Glu--Glu--IIe--Pro--Glu--Glu--Tyr--Leu--OH [Compound 25]
[1]; 20nM (compound 8), same or higher concentrations (Hirulog-1), FIG. 4
  persistence of inhibition of aggregation over the 15 minute course of the assay: did not cause sustained inhibition of the aggregation response
[1]; α-thrombin 2 nM, extent of aggregation over 1 minute after thrombin, mean ± standard deviation, three determinations
  IC50: 16 ± 3 nM
[2]
  Ki: 2.56 nM
[3]; [6]
  % Clot: 25.75 ± 3.71%
[3]; 0.1 mg/kg i.v. bolus + 60 μg/kg/min i.v. infusion
  % Clot: 26.50 ± 3.59%
[3]; 0.1 mg/kg i.v. bolus + 80 μg/kg/min i.v. infusion
  % Clot: 25.75 ± 0.41%
[3]; summary in words
  effect on venous thrombus formation induced by stasis and thromboplastin: did not have any effect of thrombus formation
[4]
  proteolytic inactivation by thrombin upon prolonged incubation: sensitive to proteolytic degradation with re-emergence of thrombin activity
[5]; 0.1 mg/kg i.v. bolus + 5 μg/kg/min i.v. infusion, mean ± S.E.M., segments with detectable thrombus
  % Clot: 70.1 ± 5.5%
[5]; 0.1 mg/kg i.v. bolus + 5 μg/kg/min i.v. infusion
  Incidence of Occlusion: 3/3
[5]; 0.1 mg/kg i.v. bolus + 10 μg/kg/min i.v. infusion, mean ± S.E.M., segments with detectable thrombus
  % Clot: 59.42 ± 4.34%
[5]; 0.1 mg/kg i.v. bolus + 10 μg/kg/min i.v. infusion
  Incidence of Occlusion: 5/6
[5]; 0.1 mg/kg i.v. bolus + 20 μg/kg/min i.v. infusion, mean ± S.E.M., segments with detectable thrombus
  % Clot: 45.3 ± 11.63%
[5]; 0.1 mg/kg i.v. bolus + 20 μg/kg/min i.v. infusion
  Incidence of Occlusion: 5/6
[5]; [6]
  % Clot: 0%
  Incidence of Occlusion: 0/6
